Assay results reported in patent US20120035265A1, “COMPOSITIONS, METHODS, AND DEVICES FOR THE TREATMENT OF DYSMENORRHEA” (MediciNova, Inc., priority 2010, published 2012).

Columns and labels:
[1] = test system: uterine muscles isolated from pregnant rabbits; assay: Spontaneous contractions of isolated uterine muscles of pregnant rabbits (organ bath); format: cell-based, rabbit
Method: (§1) Uterine muscles of pregnant rabbits were isolated, and experiments were conducted based on organ-bath method. After specimens of uterine muscles were suspended and spontaneous contractions was stabilized, the test substance, control substance or positive control substance was administered every 10 min, while doses were increased gradually. Efficacy of drugs was evaluated by comparing the sum of uterine contraction for 10 min before and after administration of drugs, defining the former as 100%.

[2] = test system: uterine muscles isolated from pregnant rabbits; assay: Oxytocin-induced contractions of isolated uterine muscles of pregnant rabbits (organ bath); format: cell-based, rabbit
Method: as §1, with “oxytocin (1 mU/mL)-induced” for “spontaneous”

[3] = test system: women with primary dysmenorrhea; assay: Myometrial activity, uterine blood flow and lower abdominal pain in women with primary dysmenorrhea (intravenous MN-221); format: in vivo, human
Method: Myometrial activity and uterine blood flow is recorded in a group of women, aged 16 to 39 years. All have regular cycles of 25 to 32 days. They suffer regularly from menstrual pain. All are so disabled by the condition that they have to abstain from work for one to three days a month, even if they use non-narcotic analgesics. At least during the first menstrual day, all have a continuous lower abdominal pain, which varies in intensity; most of them also complain of symptoms such as nausea and vomiting. The symptoms during the recordings conform to those experienced during previous menstruations.
In the menstrual cycle preceding the investigation, all women have biphasic basal body temperature recordings, and plasma oestradiol and progesterone concentrations which are higher in the middle of the luteal phase than on the first menstrual day. Recordings are made; each begin within 24 hours of the onset of menstruation lasting for more than three hours.
Myometrial activity is recorded as changes in intrauterine pressure by a microtransducer catheter. The transducer is connected to an amplifier and a potentiometer recorder. Uterine blood flow is recorded by a technique based on measuring thermodilution from a heated thermistor to blood flow in the surrounding tissue. The thermistor is placed in contact with the endometrium of the fundus and, consequently, the recordings mainly reflect the blood flow at that site. The thermistor and the pressure transducer are inserted through the cervical canal into the uterus. The receptors are kept in position by the rigidity of the transducer catheter and by use of sterile paste around the catheters in the vagina.
The patients are asked to report all symptoms during recordings, including changes in character and intensity of the menstrual pain. MN-221 is given as a single bolus intravenous injection of 0.30 mg, 0.60 mg, or 0.90 mg. Before and after the administration of MN-221, pulse rate and arterial blood pressure (measured by auscultation) are registered at 5-minute intervals.

[4] = test system: heart rate and mean blood pressure of dam; assay: Heart rate and mean blood pressure of dam in anesthetized pregnant rats; format: in vivo, rat; conditions: intravenous cumulative dosing
Method: Rats were anesthetized with urethane, and experiments were conducted based on balloon method. Uterine activity and mean blood pressure of dam were led to a pressure amplifier via a pressure transducer. As for heart rate, pulse waves were led to tachometer. Recti-graphs were used for recording. The test substance, control substance, or positive control substance was administered intravenously and cumulatively every 15 minutes, while doses were increased gradually.

[5] = test system: pregnant sheep; assay: Oxytocin-induced uterine contractions, cardiovascular system and general metabolism of pregnant sheep and their fetuses; format: in vivo
Method: MN-221 (0.001, 0.003, 0.01, 0.03, 0.1 and 0.3 μg/kg/min) was weighed and dissolved in physiological saline. At 123-125 days of pregnancy, sheep were infused with oxytocin (1.0 mU/kg/min) to induce uterine contractions. One hour later, MN-221 was infused for 3 consecutive hours beginning at a dose of 0.001 μg/kg/min for 30 min and increasing stepwise every 30 min to 0.3 μg/kg/min in the MN-221 group (N=4). The control received saline instead (N=4).

[6] = test system: women with severe primary dysmenorrhea; assay: Transdermal administration of MN-221 in women with severe primary dysmenorrhea (double-blind cross-over trial); format: in vivo, human
Method: The study is conducted in women, aged 15-39 years. Some of them are nulliparous and some are parous. All have regular 25-32 day cycles. They have all suffered from severe dysmenorrhea for more than one year. All the women are incapacitated for 1-2 days every month. During the first menstrual day they have continuous low abdominal pain of varying severity and in some women it is accompanied by nausea and vomiting.
All the women are informed and give their consent before the trial is started. The study is performed as a double-blind cross-over trial in which the patients are given, in random order, MN-221 transdermal patches during one menstrual period and placebo patches of identical appearance during the next period. The patients return to the hospital after the end of each menstrual flow and their dysmenorrheic symptoms are assessed. The therapeutic effect is also assessed and graded as none, weak, and moderate, over to good and very good. All women in the study have signs of ovulation—mid-cycle temperature rise—in the menstrual cycle preceding the trial. The MN-221 or the placebo is given as a five day transdermal patch during menstrual pains. MN-221 is administered as a dose in a range of about 0.02 mg/kg to 1.5 mg/Kg. The volume of the menstrual blood loss is calculated from the hemoglobin content of all the sanitary towels used by the patient and delivered to the department.

[7] = pregnant rabbit uterine muscles
[8] = single bolus intravenous injection of 0.30 mg, 0.60 mg, or 0.90 mg

EC50 ([1]; Oryctolagus cuniculus, spontaneous contractions, pregnant rabbit uterine muscles, read-out: pD2 values (converted)): 1.91 nM
EC50 ([2]; Oryctolagus cuniculus, oxytocin (1 mU/mL)-induced contractions, pregnant rabbit uterine muscles, read-out: pD2 values (converted)): 2.51 nM
SMILES: CN(C)C(=O)COc1ccc2c(c1)C[C@@H](NC[C@H](O)c1ccc(O)c(CCO)c1)CC2 [MN-221, (−)-bis(2-{[(2S)-2-({(2R)-2-hydroxy-2-[4-hydroxy-3-(2-hydroxyethyl)phenyl]ethyl}amino)-1,2,3,4-tetrahydronaphthalen-7-yl]oxy}-N,N-dimethyl-acetamide) monosulfate]
inhibitory effect against oxytocin-induced contractions of isolated uterine muscles ([1]; as worded in Example 6 (spontaneous contraction study)): demonstrated inhibitory effect
inhibitory effect against spontaneous contractions of uterine muscles, comparison [1, 7]: clearly stronger than that of HSR-81, ritodrine and terbutaline
inhibitory effect against oxytocin-induced contractions of isolated uterine muscles ([2]; oxytocin (1 mU/mL)): demonstrated inhibitory effect
inhibitory effect against oxytocin-induced contractions of uterine muscles, comparison [2, 7]: clearly stronger than that of HSR-81, ritodrine and terbutaline
pain relief ([3]; after injection or infusion): pain relief within one minute after injection
increase in heart rate, blood pressure, palpitations, tremors, and/or flushes ([3]; intravenous, all subjects): substantially no increase in heart rate, blood pressure, palpitations, tremors, and/or flushes
duration of effect ([3]; single bolus intravenous injection): lasts for few hours
local uterine blood flow [3, 8]: generally increases
myometrial activity [3, 8]: decreases the myometrial activity
decrease in mean blood pressure of dam [4]: significantly small
effect to increase heart rate of dam [4]: significantly weaker than that of any of other agents
maternal heart rate, diastolic and mean blood pressure, base excess, blood K+, blood lactate, plasma glucose, insulin, non-esterified fatty acid levels, fetal plasma glucose and insulin levels ([5]; MN-221 group versus control (saline) group): Significant differences between the two groups
suppression of oxytocin-induced uterine contractions ([5]; at doses over 0.03 μg/kg/min, infusion, oxytocin 1.0 mU/kg/min, pregnant sheep): more than 90%
cardiovascular and metabolic side effects ([5]; pregnant sheep and fetuses, stepwise infusion 0.001 to 0.3 μg/kg/min): reduced cardiovascular and metabolic side effects
therapeutic response (relief) compared to placebo ([6]; five day transdermal patch, about 0.02 mg/kg to 1.5 mg/Kg): positive response with relief in women as compared to placebo
increase in heart rate, blood pressure, palpitations, tremors, and/or flushes ([6]; transdermal patch, all subjects): substantially no increase in heart rate, blood pressure, palpitations, tremors, and/or flushes
